The molecules below were run against EGFR (human) (UniProt P00533). Conditions: a431, dose or concentration not given here.
Chain of EGFR (human) (P00533 whole entry, looked up): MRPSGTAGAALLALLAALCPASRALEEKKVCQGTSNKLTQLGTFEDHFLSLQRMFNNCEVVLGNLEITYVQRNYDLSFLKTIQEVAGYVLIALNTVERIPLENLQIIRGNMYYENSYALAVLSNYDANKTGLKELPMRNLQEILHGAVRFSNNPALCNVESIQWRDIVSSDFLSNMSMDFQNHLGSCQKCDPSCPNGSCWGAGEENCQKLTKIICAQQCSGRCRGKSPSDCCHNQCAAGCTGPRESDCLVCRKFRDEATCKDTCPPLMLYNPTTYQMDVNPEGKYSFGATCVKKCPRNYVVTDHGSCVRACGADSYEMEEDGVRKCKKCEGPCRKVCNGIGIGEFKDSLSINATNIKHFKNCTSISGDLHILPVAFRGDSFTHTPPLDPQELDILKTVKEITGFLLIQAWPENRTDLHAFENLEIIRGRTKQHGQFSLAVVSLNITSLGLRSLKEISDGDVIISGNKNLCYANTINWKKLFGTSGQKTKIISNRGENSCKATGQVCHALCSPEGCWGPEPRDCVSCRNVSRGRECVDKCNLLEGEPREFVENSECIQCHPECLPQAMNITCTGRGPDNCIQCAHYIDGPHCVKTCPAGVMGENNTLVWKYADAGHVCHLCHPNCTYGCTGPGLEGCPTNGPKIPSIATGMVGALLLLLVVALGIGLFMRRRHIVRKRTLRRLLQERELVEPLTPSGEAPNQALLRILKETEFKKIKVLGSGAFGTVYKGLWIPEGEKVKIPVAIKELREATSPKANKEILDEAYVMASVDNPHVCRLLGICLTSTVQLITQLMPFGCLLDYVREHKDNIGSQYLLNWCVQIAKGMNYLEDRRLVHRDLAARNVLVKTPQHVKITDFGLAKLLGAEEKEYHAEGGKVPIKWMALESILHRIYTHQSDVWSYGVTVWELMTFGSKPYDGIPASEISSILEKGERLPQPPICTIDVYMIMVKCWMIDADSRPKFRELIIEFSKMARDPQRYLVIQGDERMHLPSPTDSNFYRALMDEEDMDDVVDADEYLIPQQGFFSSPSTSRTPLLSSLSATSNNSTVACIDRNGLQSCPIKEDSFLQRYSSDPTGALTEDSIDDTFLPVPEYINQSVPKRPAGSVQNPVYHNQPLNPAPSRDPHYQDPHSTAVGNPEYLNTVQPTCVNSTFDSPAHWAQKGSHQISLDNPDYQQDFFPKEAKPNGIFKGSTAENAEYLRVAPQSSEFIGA
`COc1cc2ncnc(NC3CC3c3ccccc3)c2cc1OCCCN(C)C` (centres undefined) gave an inhibition of 36%.

What follows are molecules tested against EGFR (human) (UniProt P00533). Conditions: kb.
For `COc1cc2ncnc(NC3CC3c3ccccc3)c2cc1O` (centres undefined), the IC50 was > 25 µM.
Molecule `COc1cc2ncnc(NC3CCc4ccccc43)c2cc1OC` (centres undefined) has an IC50 of 1.73 µM.
`COc1cc2ncnc(NC3CC3c3ccccc3)c2cc1OCCCN(C)C` (centres undefined) was tested, and the IC50 was 0.31 µM.
With `COc1cc2ncnc(Nc3nnc4ccccc4n3)c2cc1OC` the IC50 was > 25 µM.
Work on `COc1cc2ncnc(NCc3cccc(C)c3)c2cc1OC` yielded an IC50 of 1.6 µM.
`COc1cc2ncnc(NC3CC3c3ccccc3)c2cc1OC` (centres undefined) gave an IC50 of 0.14 µM.
`COc1cc2ncnc(NC3CC3c3ccccc3)c2cc1OCCN1CCOCC1` (centres undefined) showed an IC50 of 0.57 µM.
`COc1cc2ncnc(Nc3cnc4ccccc4n3)c2cc1OC` was tested, and the IC50 was > 25 µM.
`COc1cc2ncnc(N3CCc4ccccc43)c2cc1OC` gave an IC50 of 4.1 µM.
Work on `COc1cc2ncnc(NC3CC3c3ccccc3)c2cc1OC(C)=O` (centres undefined) yielded an IC50 of 11.4 µM.
In the case of `COc1cc2ncnc(Nc3cncc4ccccc34)c2cc1OC`, the IC50 is reported as 0.36 µM.
`COc1cc2ncnc(NNc3ccc(F)c(Cl)c3)c2cc1OC` gave an IC50 of 0.78 µM.
With `COc1cc2ncnc(Nc3nccc4ccccc34)c2cc1OC` the IC50 was 1.8 µM.
